These results are taken from PMC5908784, “Extracellular loops 2 and 3 of the calcitonin receptor selectively modify agonist binding and efficacy” (Biochemical Pharmacology, 2018).

Residue numbers refer to the chain shown, from its start. Where a SMILES comes first, the peptide text is derived from it. Bridges are numbered along the chain shown (N, C = ends).

Assay in all cases: cAMP accumulation
Holding throughout (format): cell-based

The target in assay [1] is T1, hCTR D287A (Homo sapiens, UniProt P30988, D287A).
T1 construct: c-Myc (N); expressed in transfected cells
T1 sequence (P30988 25-474 D287A): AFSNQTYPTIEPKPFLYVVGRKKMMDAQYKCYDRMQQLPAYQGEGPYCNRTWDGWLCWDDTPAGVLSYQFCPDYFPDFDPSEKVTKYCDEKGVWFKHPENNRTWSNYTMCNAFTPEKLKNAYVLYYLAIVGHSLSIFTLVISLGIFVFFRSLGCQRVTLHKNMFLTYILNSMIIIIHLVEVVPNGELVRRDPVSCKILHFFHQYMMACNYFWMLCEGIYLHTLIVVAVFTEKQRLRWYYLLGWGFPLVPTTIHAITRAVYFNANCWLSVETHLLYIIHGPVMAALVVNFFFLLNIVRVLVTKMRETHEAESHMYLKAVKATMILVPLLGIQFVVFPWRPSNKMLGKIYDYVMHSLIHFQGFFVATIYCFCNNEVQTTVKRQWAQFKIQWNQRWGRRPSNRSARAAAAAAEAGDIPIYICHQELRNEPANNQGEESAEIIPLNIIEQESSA
Particulars: mean ± S.E.M.; for Emax: cAMP maximal response, SEM. The method in brief:
(§1)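 Cells expressing the receptor mutant were seeded overnight, then stimulated with increasing ligand concentrations for 30 min in the presence of IBMX. After ethanol extraction and drying at room temperature, cAMP was measured and normalized to the 100 μM forskolin response. EC50 and Emax came from 3-parameter logistic fits.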

Assay [2] deals with T2, hCTR I279A (Homo sapiens, UniProt P30988, I279A).
T2 construct: expressed in transfected cells
T2 sequence (P30988 25-474 I279A): T1 sequence (P30988 25-474 D287A) with I255A, A263D
Particulars: mean ± S.E.M.; for Emax: cAMP maximal response, SEM; for EC50: cAMP, CV1-FlpIn cells, 30 min, IBMX. The method in brief: as §1

Assay [3] deals with T3, hCTR S292A (Homo sapiens, UniProt P30988, S292A).
T3 construct: expressed in transfected cells
T3 sequence (P30988 25-474 S292A): T1 sequence (P30988 25-474 D287A) with A263D, S268A
Conditions: mean ± S.E.M.; for Emax: cAMP maximal response, SEM; for EC50: cAMP, CV1-FlpIn cells, 30 min, IBMX. In short, it runs like this:
as §1

For assay [4], the target named is T4, hCTR V357A (Homo sapiens, UniProt P30988, V357A).
T4 construct: c-Myc (N); expressed in transfected cells
T4 sequence (P30988 25-474 V357A): T1 sequence (P30988 25-474 D287A) with A263D, V333A
Conditions: mean ± S.E.M.; for Emax: cAMP maximal response, SEM; for EC50: cAMP, CV1-FlpIn cells, 30 min, IBMX. The method in brief: as §1

The target in assay [5] is T5, hCTR Y299A (Homo sapiens, UniProt P30988, Y299A).
T5 construct: c-Myc (N); expressed in transfected cells
T5 sequence (P30988 25-474 Y299A): T1 sequence (P30988 25-474 D287A) with A263D, Y275A
Conditions: mean ± S.E.M.; for Emax: cAMP maximal response, SEM; for EC50: cAMP, CV1-FlpIn cells, 30 min, IBMX. The method in brief:
as §1

Take `CC(C)C[C@H](NC(=O)[C@H](CCCCN)NC(=O)CNC(=O)[C@H](CC(C)C)NC(=O)[C@@H](NC(=O)[C@@H]1CSSC[C@H](N)C(=O)N[C@@H](CO)C(=O)N[C@@H](CC(N)=O)C(=O)N[C@@H](CC(C)C)C(=O)N[C@@H](CO)C(=O)N[C@@H]([C@@H](C)O)C(=O)N1)C(C)C)C(=O)N[C@@H](CO)C(=O)N[C@@H](CCC(N)=O)C(=O)N[C@@H](CCC(=O)O)C(=O)N[C@@H](CC(C)C)C(=O)N[C@@H](Cc1c[nH]cn1)C(=O)N[C@@H](CCCCN)C(=O)N[C@@H](CC(C)C)C(=O)N[C@@H](CCC(N)=O)C(=O)N[C@H](C(=O)N[C@@H](Cc1ccc(O)cc1)C(=O)N1CCC[C@H]1C(=O)N[C@@H](CCCNC(=N)N)C(=O)N[C@H](C(=O)N[C@@H](CC(N)=O)C(=O)N[C@H](C(=O)NCC(=O)N[C@@H](CO)C(=O)NCC(=O)N[C@H](C(=O)N1CCC[C@H]1C(N)=O)[C@@H](C)O)[C@@H](C)O)[C@@H](C)O)[C@@H](C)O` [sCT]: the Emax in assay [1] worked out at 119 ± 7%; in assay [2], 90 ± 6%; in assay [3] it was 119 ± 12%; in assay [4], 133 ± 12%; in assay [5] it was 110 ± 7%.

`CSCC[C@H](NC(=O)CNC(=O)[C@H](CO)NC(=O)[C@H](Cc1ccccc1)NC(=O)[C@H](CCCNC(=N)N)NC(=O)[C@H](Cc1c[nH]cn1)NC(=O)[C@H](Cc1ccccc1)NC(=O)[C@H](CC(N)=O)NC(=O)[C@H](CC(N)=O)NC(=O)[C@H](CC(C)C)NC(=O)[C@H](CC(N)=O)NC(=O)[C@H](CCCNC(=N)N)NC(=O)[C@H](Cc1c[nH]c2ccccc12)NC(=O)[C@H](Cc1ccc(O)cc1)NC(=O)[C@H](C)NC(=O)[C@H](CO)NC(=O)[C@H](CC(C)C)NC(=O)[C@@H](NC(=O)[C@@H]1CSSC[C@H](N)C(=O)N[C@@H](CO)C(=O)N[C@@H](CC(N)=O)C(=O)N[C@@H](CC(C)C)C(=O)N[C@@H](CO)C(=O)N[C@@H]([C@@H](C)O)C(=O)N1)C(C)C)C(=O)NCC(=O)N[C@@H](Cc1ccccc1)C(=O)NCC(=O)N1CCC[C@H]1C(=O)N[C@@H](CCC(=O)O)C(=O)N[C@H](C(=O)N1CCC[C@H]1C(N)=O)[C@@H](C)O` [pCT] (H-CSNLSTCVLSAYWRNLNNFHRFSGMGFGPETP-NH2; disulfide 1-7): the maximal effect (Emax) turned out to be 74 ± 9% in assay [1]; 97 ± 4% in assay [2]; 131 ± 9% in assay [3]; 154 ± 17% in assay [4]; 117 ± 9% in assay [5]. The concentration giving a half-maximal response (EC50) in assay [1] (cAMP, CV1-FlpIn cells, 30 min, IBMX) is 1.91 nM; in assay [2] it was 0.0398 nM; in assay [3] it was 0.0316 nM; in assay [4] it was 0.151 nM; in assay [5], 0.135 nM.

Take `CC(C)C[C@H](NC(=O)[C@H](CC(N)=O)NC(=O)[C@H](CC(N)=O)NC(=O)[C@H](CO)NC(=O)[C@H](CO)NC(=O)[C@H](CCCNC(=N)N)NC(=O)[C@@H](NC(=O)[C@H](CC(C)C)NC(=O)[C@H](Cc1ccccc1)NC(=O)[C@H](CC(N)=O)NC(=O)[C@H](C)NC(=O)[C@H](CC(C)C)NC(=O)[C@H](CCCNC(=N)N)NC(=O)[C@H](CCC(N)=O)NC(=O)[C@@H](NC(=O)[C@H](C)NC(=O)[C@@H]1CSSC[C@H](NC(=O)[C@@H](N)CCCCN)C(=O)N[C@@H](CC(N)=O)C(=O)N[C@@H]([C@@H](C)O)C(=O)N[C@@H](C)C(=O)N[C@@H]([C@@H](C)O)C(=O)N1)[C@@H](C)O)C(C)C)C(=O)NCC(=O)N1CCC[C@H]1C(=O)N[C@H](C(=O)N[C@@H](CC(C)C)C(=O)N1CCC[C@H]1C(=O)N1CCC[C@H]1C(=O)N[C@H](C(=O)N[C@@H](CC(N)=O)C(=O)N[C@H](C(=O)NCC(=O)N[C@@H](CO)C(=O)N[C@@H](CC(N)=O)C(=O)N[C@H](C(=O)N[C@@H](Cc1ccc(O)cc1)C(N)=O)[C@@H](C)O)C(C)C)[C@@H](C)O)C(C)C` [rAmy]: the Emax in assay [2] came out at 81 ± 9%; in assay [3] it was 95 ± 10%; in assay [4], 88 ± 10%; in assay [5] it was 102 ± 1%.

Consider `CC(C)C[C@H](NC(=O)CNC(=O)[C@H](C)NC(=O)[C@H](CC(C)C)NC(=O)[C@H](CCCNC(=N)N)NC(=O)[C@H](Cc1cnc[nH]1)NC(=O)[C@@H](NC(=O)[C@@H](NC(=O)[C@@H]1CSSC[C@H](NC(=O)[C@H](C)N)C(=O)N[C@@H](CC(=O)O)C(=O)N[C@@H]([C@@H](C)O)C(=O)N[C@@H](C)C(=O)N[C@@H]([C@@H](C)O)C(=O)N1)C(C)C)[C@@H](C)O)C(=O)N[C@@H](CC(C)C)C(=O)N[C@@H](CO)C(=O)N[C@@H](CCCNC(=N)N)C(=O)N[C@@H](CO)C(=O)NCC(=O)NCC(=O)N[C@H](C(=O)N[C@H](C(=O)N[C@@H](CCCCN)C(=O)N[C@@H](CC(N)=O)C(=O)N[C@@H](CC(N)=O)C(=O)N[C@@H](Cc1ccccc1)C(=O)N[C@H](C(=O)N1CCC[C@H]1C(=O)N[C@H](C(=O)N[C@@H](CC(N)=O)C(=O)N[C@H](C(=O)NCC(=O)N[C@@H](CO)C(=O)N[C@@H](CCCCN)C(=O)N[C@@H](C)C(=O)N[C@@H](Cc1ccccc1)C(N)=O)C(C)C)[C@@H](C)O)C(C)C)C(C)C)C(C)C` [hαCGRP], for which the Emax worked out at 139 ± 18% in assay [2], 106 ± 14% in assay [3], 82 ± 10% in assay [4] and 62 ± 16% in assay [5]. Besides, the EC50 in assay [2] was 3.39 nM; in assay [3], 22.4 nM; in assay [4], 29.5 nM; in assay [5], 33.1 nM.

For the compound `CC[C@H](C)[C@H](NC(=O)[C@H](C)NC(=O)[C@@H](NC(=O)[C@H](CCC(N)=O)NC(=O)[C@@H]1CCCN1C(=O)[C@H](Cc1ccccc1)NC(=O)[C@@H](NC(=O)[C@H](Cc1c[nH]cn1)NC(=O)[C@H](Cc1ccccc1)NC(=O)[C@H](CCCCN)NC(=O)[C@H](CC(N)=O)NC(=O)[C@H](Cc1ccccc1)NC(=O)[C@H](CC(=O)O)NC(=O)[C@H](CCC(N)=O)NC(=O)[C@@H](NC(=O)[C@H](Cc1ccc(O)cc1)NC(=O)[C@@H](NC(=O)CNC(=O)[C@H](CC(C)C)NC(=O)[C@H](CCSC)NC(=O)[C@@H]1CSSC[C@H](N)C(=O)NCC(=O)N[C@@H](CC(N)=O)C(=O)N[C@@H](CC(C)C)C(=O)N[C@@H](CO)C(=O)N[C@@H]([C@@H](C)O)C(=O)N1)[C@@H](C)O)[C@@H](C)O)[C@@H](C)O)[C@@H](C)O)C(=O)NCC(=O)N[C@H](C(=O)NCC(=O)N[C@@H](C)C(=O)N1CCC[C@H]1C(N)=O)C(C)C` [hCT], the Emax was 140 ± 18% in assay [1]; 91 ± 4% in assay [2]; 135 ± 13% in assay [3]; 137 ± 6% in assay [4]; 133 ± 9% in assay [5].
